Source: patent US20250154193A1, “STEROID COMPOUND, AND PREPARATION METHOD THEREFOR AND APPLICATION THEREOF” (CHOLESGEN (SHANGHAI) CO., LTD., priority 2022, published 2025)

Key:
[1] = Liver microsomal metabolic stability assay; format: in vitro ADME; details: rat liver microsomes, NADPH, 37° C., 0-60 minutes; read-out: Rat microsomal metabolic half-life (t1/2)
Method: PBS solution (100 mM), MgCl2 solution (100 mM), and NADPH solution (20 mM) were prepared respectively. Compound and testosterone (positive control) stock solutions were then prepared with dimethyl sulfoxide (DMSO), diluted to 100 µM with methanol for sample incubation, and stored at −10 to −30° C. 12.5 μL of rat liver microsomes (purchased from XenoTech, Cat. No.: R1000, Lot No.: 1310030, specification: 20 mg/mL), 432.5 µL of PBS solution (100 mM), 25 µL of NADPH solution (20 mM), and 25 μL of MgCl2 solution (100 mM) were added to a 96-well plate, mixed well, and pre-incubated at 37° C. for 5 minutes. 5 µL of substrate (test compound) solution was added to start the reaction. At specified time points of 0, 5, 15, 30, 45, and 60 minutes (0 and 60 minutes for the negative control group), 50 µL of the incubated samples were added to a stop plate containing 100 µL of ice-cold stop solution, vortexed for 1 minute to inactivate the reaction, and stored at −60 to −90° C. for subsequent analysis. Sample analysis of the test compound and the control compound testosterone was performed using LC-MS/MS method. Chromatographic peaks were integrated, calculated, and processed using Analyst software. Semi-quantitative analysis was performed for both the test compound and the control compound testosterone by calculating peak area ratios.

liver organoids [2] = test: Real-time quantitative PCR of lipogenesis- and fibrosis-related genes in fatty liver organoids; format: cell-based, mice; details: mouse fatty liver organoids, 1 and 3 μM, 72 hours, qPCR
Excerpt: Liver samples or liver organoid samples were homogenized in TRI Reagent (T9424, Sigma), and total RNA was extracted according to the manufacturer's instructions. Equal amounts of RNA template were used to synthesize cDNA with oligo dT primers and MLV reverse transcriptase (Promega). Quantitative data for genes were collected using the Bio-Rad CFX96 real-time PCR system, and the relative amount of gene mRNA was quantified using the comparative CT method.
(§1) C57BL/6N mice were fed with fatty liver-inducing diet (TrophicDiet, TP2630052A, containing 10.2% kcal protein, 37.3% kcal carbohydrate, and 52.6% kcal fat) and fructose-containing drinking water (23.1 g of fructose and 18.9 g of dextrose were dissolved in 1 L of water, then filtered and sterilized) for a total of 16 weeks starting at 12 weeks of age to generate a fatty liver model. To generate fatty liver organoids, liver tissues from mice with fatty liver were minced and digested in digestion buffer at 37° C. for 30 to 60 minutes. The digestion buffer included DMEM/F-12 (Cytiva, SH30023.01), 2.5 mg/mL collagenase D (Roche, COLLD-RO), and 0.1 mg/mL DNaseI (Sigma-Aldrich, DN25). […]
To distinguish whether the inhibitory effect of 25-hydroxylanosterol is directly based on its effect on the liver or a systemic effect, we utilized 3D liver organoids as an in vitro model for the study of fatty liver to analyze the effect of 25-hydroxylanosterol on lipogenesis and fibrosis marker expression in liver organoids. […] RNA from the organoids was collected and analyzed for the differential expression of lipogenesis-related genes (Hmgcs, Hmgcr, SCD1, and FASN) and fibrosis markers (αSMA and Colla1) using fluorescent real-time quantitative PCR.
(§2) In FIGS. 35 and 36, data are represented as mean±standard deviation. P values were calculated using one-way ANOVA; ns indicates no statistical difference; * indicates P<0.05; ** indicates P<0.01; *** indicates P<0.001. In FIGS. 47 and 53, quantitative analysis was performed using ImageJ software. […] P values were calculated using one-way ANOVA; * indicates P<0.05; ** indicates P<0.01; *** indicates P<0.001.

liver organoids [3] = test: Nile Red and αSMA immunofluorescence staining of fatty liver organoids; format: cell-based, mice; details: mouse fatty liver organoids, 1 and 3 μM, 72 hours
Method: as §1, with “DN25). Isolated single hepatocytes were filtered through a 70 μm filter membrane and washed once. Cells were collected by centrifugation, and resuspended in a mixture of culture medium and basement membrane extract (BME) (R&D Systems, 3533-010-02) at a ratio of 1:3.” for “DN25).”
as §2

## C[C@H](CCCC(C)(C)O)[C@H]1CC[C@@]2(C)C3=C(CC[C@]12C)[C@@]1(C)CC[C@H](O)C(C)(C)[C@@H]1CC3 [compound 68, (1R,3aR,5aR,7S,9aS,11aR)-1-[(2R)-6-hydroxy-6-methylheptan-2-yl]-3a,6,6,9a,11a-pentamethyl-2,3,3a,4,5,5a,6,7,8,9,9a,10,11,11a-tetradecahydro-1H-cyclopenta[1,2-a]phenanthren-7-ol]
[1]
  half-life at 1 µM: 8.36 min
Liver organoids [2]
  expression levels of fibrosis-related genes (Col1a1 and αSMA): significantly inhibited
  expression levels of lipogenesis-related genes (Hmgcs, Hmgcr, SCD1, and FASN): significantly inhibited
Liver organoids [3]
  expression of fibrosis marker protein αSMA (immunofluorescence staining): decreasing
  lipid accumulation in organoids (Nile Red staining): reduced
